Drawing on publication PMC9658513, “Discovery of Compounds That Selectively Repress the Amyloidogenic Processing of the Amyloid Precursor Protein: Design, Synthesis and Pharmacological Evaluation of Diphenylpyrazoles” (International Journal of Molecular Sciences, 2022), this text covers IC50, EC (20-fold increase) and CC50 for 13 molecules.

Holding throughout (format): cell-based, human
One data set concerns Aβ1–40 peptide secretion. Kind of data set: Aβ1–40 secretion in cell medium by ELISA. Conditions: Homo sapiens; SY5Y-APP^WT cells, 24 h treatment; mean ± SD of at least three experiments in triplicate; read-out: Aβ1–40 IC50. How it is done:
(§1) The final and selected intermediate compounds were evaluated for their ability to modulate APP processing in the SH-SY5Y human neuroblastoma cell line stably expressing the neuronal isoform of human wild-type APP^695 (SY5Y-APP^WT), a well-established model for the study of APP metabolism. APP carboxy-terminal fragments (αCTFs and AICD) levels were assessed by Western blotting (WB). The effect of the reference and test compounds on αCTFs and AICD is expressed as the intensity of corresponding WB bands. The concentration of compounds able to increase 20-times αCTFs and AICD (C20) when compared to the control condition was calculated. Selected compounds were also evaluated for their ability to modulate the secretion of soluble APP fragments (sAPPα and sAPPβ). Aβ1–x levels (Aβ1–40 and Aβ1–42) after treatment with the reference and tested compounds were measured in the cell media by ELISA (Table 1). […] Selected hit compounds were then further evaluated for their ability to decrease the level of N-truncated Aβ peptides (Aβx–38, Aβx–40, and Aβx–42).
(§2) The human neuroblastoma cell line SY5Y-APP^695WT was maintained in Dulbecco’s modified Eagle medium (DMEM, high glucose, pyruvate—GIBCO, Life Technologies, Carlsbad, CA, USA) supplemented with 10% fetal bovine serum, 2 mM L-glutamine, 1 mM non-essential amino acids and penicillin/streptomycin (GIBCO, Life Technologies, Carlsbad, CA, USA) at 37 °C in a 5% CO2 humidified incubator [36]. For compound treatment, a 10 mM stock solution was diluted in freshly supplemented DMEM medium to obtain the precise final concentration of the drug. Cells were plated at a density of 5 × 10^5 cells per well into 12-well plates and cultured with 1 mL supplemented DMEM cell medium for 24 h before compound exposure. The following day, the cell medium was replaced with fresh medium containing the compounds diluted at the indicated concentrations. Cells were treated for 24 h. At the end of the treatments, the cell medium was collected and kept at −80 °C until use, cells were rinsed once with PBS and extracted in 100 µL of Laemmli buffer (10 mM Tris, 20% glycerol, and 2% sodium dodecyl sulfate) using a cell-scraper. The cell lysate was further sonicated (30 pulses of 0.5 s, 60 Hz) for 5 min. Total protein concentration was determined using the Pierce BCA Protein Assay Kit (Thermo Scientific, Waltham, MA, USA) according to the manufacturer’s instructions. Samples were stored at −80 °C until analysis.
(§3) Conditioned media of SY5Y-APP^695WT collected at the end of treatments were centrifuged at 1000× g for 5 min to eliminate cell debris.
(§4) Aβ1–40/Aβ1–42 peptides, Aβx–38/Aβx–40/Aβx–42, and sAPPα/sAPPβ concentrations in pg/mL were determined, respectively, using amyloid-beta 40 and 42 Human ELISA Kits (Invitrogen), the V-PLEX Plus Aβ Peptide Panel 1 (4G8) Kit (Meso Scale Diagnostics, MSD R©, Rockville, MD, USA), and the sAPPα/sAPPβ Multiplex Kit (Meso Scale Diagnostics, MSD R©, Rockville, MD, USA) according to the manufacturer’s instructions.
Background: ELISA stands for enzyme-linked immunosorbent assay.

Another data set relates to Aβ1–42 peptide secretion. In words: Aβ1–42 secretion in cell medium by ELISA. Conditions: Homo sapiens; SY5Y-APP^WT cells, 24 h treatment; mean ± SD of at least three experiments in triplicate. How it is done:
as §1, §2, §3, §4

Data set [1] has as its system αCTF (APP carboxy-terminal fragment). Kind of data set: αCTF level by Western blotting in SY5Y-APP^WT cells. As to conditions: Homo sapiens; concentration increasing αCTF 20-fold vs untreated control; SY5Y-APP^WT cells; read-out: αCTF (C20). The method, then:
as §1, §2
(§5) Cell protein lysates were prepared for Western blot analysis by diluting the sample with 1 volume of NuPAGE® lithium dodecyl sulfate (LDS) 2X sample buffer supplemented with 20% NuPAGE® sample reducing agents (Invitrogen). Samples were heated for 10 min at 100 °C. Ten µg of total proteins per well were loaded onto precast 4–12% Criterion XT Bis-Tris polyacrylamide gels (Bio-Rad) and electrophoresis was achieved after applying a tension of 150 V for 90 min using a Criterion electrophoresis cell with the NuPAGE® MOPS SDS running buffer (1X). Proteins were transferred to a nitrocellulose membrane of […] pore size (G&E Healthcare, Madison, WI, USA) using the Criterion blotting system and applying a tension of 100 V for 45 min. To resolve proteins of low molecular weights such as carboxy-terminal fragments of APP, 12% Criterion XT Bis-Tris polyacrylamide gels (Bio-Rad, Hercules, CA, USA) were used, and electrophoresis was performed for 70 min at 150 V in a NuPAGE® MES SDS running buffer (1X). Proteins were transferred to a nitrocellulose membrane of 0.2 µm pore size (G&E Healthcare, Madison, WI, USA) at 100 V for 40 min. Molecular weight calibration was achieved using molecular weight markers (Novex and Magic Marks, Life Technologies, Carlsbad, CA, USA). Protein transfer and quality were determined by a reversible Ponceau Red coloration (0.2% xylidine Ponceau Red and 3% trichloroacetic acid). […]
(Immunoblotting shows a protein as a band on a membrane.)

In data set [2] the test system is AICD (APP intracellular domain). Kind of data set: AICD level by Western blotting in SY5Y-APP^WT cells. As to conditions: Homo sapiens, concentration increasing AICD 20-fold vs untreated control, read-out: AICD (C20). How it is done: as §1, §2, §5
A further data set in a line: in vitro. As to conditions: human. The method, then:
Cytotoxicity was measured using 3-(4,5-dimethylthiazol-2-yl)-5-(3-carboxymethoxyphenyl)-2-(4-sulfophenyl)-2H-tetrazolium (MTS) tests. SY5Y-APP^695WT cells were plated in a 96-well plate at 3 × 10^4 cells per well and allowed to attach for 24 h. Cells were then incubated for 72 h with 100 µL of DMEM with 10% SVF containing (or not) the defined concentration of drugs. Cytotoxicity was determined by using the colorimetric MTS assay (Cell Titer 96® Aqueous One Solution Cell Proliferation Assay-MTS Promega, Madison, WI, USA) according to the manufacturer’s instructions. Absorbance was read at 490 nm.

In the case of `CN(C)CCCc1ccc(-c2nn(-c3ccc(CO)cc3)cc2CN(C)C)cc1` [Compound 16, [4-[4-(Dimethylaminomethyl)-3-[4-[3-(dimethylamino)propyl]phenyl] Pyrazol-1-yl]phenyl]methanol], the figures for the IC50 in the data set on Aβ1–40 peptide secretion and in the data set with Aβ1–42 peptide secretion were 6.2 ± 0.6 µM and 6.5 ± 1.1 µM, respectively. The figures for the EC (20-fold increase) in data set [1] and in data set [2] were 3.6 µM and 4.6 µM, respectively. The molecule also showed a CC50 at 72 h in “in vitro” of 23 µM.
In the case of `CN(C)CCCc1ccc(-c2nn(-c3ccc(CO)cc3)cc2CCCN(C)C)cc1` [Compound 17, [4-[4-[3-(Dimethylamino)propyl]-3-[4-[3-(dimethylamino)propyl]phenyl] Pyrazol-1-yl]phenyl]methanol], the IC50 worked out at 4.8 ± 1.2 µM with Aβ1–40 peptide secretion and 5.4 ± 2.4 µM in the data set on Aβ1–42 peptide secretion. The EC (20-fold increase) in data set [1] amounted to 2 µM; in data set [2] it was 3.6 µM. The molecule also came in with a CC50 at 72 h in “in vitro” of 34 µM.
For `CN(C)CCCc1ccc(-c2nn(-c3ccc(CN(C)C)cc3)cc2CCCN(C)C)cc1` [Compound 25, 3-[4-[1-[4-(Dimethylaminomethyl)phenyl]-4-[3-(dimethylamino)propyl] Pyrazol-3-yl]phenyl]-N,N-dimethyl-propan-1-amine], in that order: 2.9 ± 0.1 µM, 3.2 ± 1 µM, 1 µM, 1.2 µM and greater than 100 µM.
For `CN(C)CCCc1ccc(-c2nn(-c3cccc(CN(C)C)c3)cc2CN(C)C)cc1` [Compound 26, 3-[4-[4-(Dimethylaminomethyl)-1-[3-(dimethylaminomethyl)phenyl] Pyrazol-3-yl]phenyl]-N,N-dimethyl-propan-1-amine], in that order: 1.6 ± 0.1 µM, 2.4 ± 0.7 µM, 1.3 µM, 1.8 µM and greater than 100 µM.
For `CN(C)CCCc1ccc(-c2nn(-c3cccc(CN(C)C)c3)cc2CCCN(C)C)cc1` [Compound 27, 3-[4-[1-[3-(Dimethylaminomethyl)phenyl]-4-[3-(dimethylamino)propyl] Pyrazol-3-yl]phenyl]-N,N-dimethyl-propan-1-amine], in that order: 2.6 ± 0.1 µM, 3.8 ± 0.4 µM, 1.3 µM, 1.6 µM and greater than 100 µM.
As to `CN(C)CCCc1ccc(-c2nn(-c3ccc(CN4CCN(C)CC4)cc3)cc2CN(C)C)cc1` [Compound 28, 3-[4-[4-(Dimethylaminomethyl)-1-[4-[(4-methylpiperazin-1-yl)methyl] Phenyl]pyrazol-3-yl]phenyl]-N,N-dimethyl-propan-1-amine], the values for the IC50 with Aβ1–40 peptide secretion and in the data set with Aβ1–42 peptide secretion were 1.9 ± 0.1 µM and 2.4 ± 0.7 µM, respectively. Besides, the EC (20-fold increase) in data set [1] was 1.2 µM; in data set [2] it was 1.7 µM. In the data set “in vitro”, this molecule gave a CC50 at 72 h greater than 100 µM.
For `CN(C)CCCc1ccc(-c2nn(-c3ccc(CN4CCN(C)CC4)cc3)cc2CCCN(C)C)cc1` [Compound 29, 3-[4-[4-[3-(Dimethylamino)propyl]-1-[4-[(4-methylpiperazin-1-yl) Methyl]phenyl]pyrazol-3-yl]phenyl]-N,N-dimethyl-propan-1-amine], in that order: 3.4 ± 0.1 µM, 5 ± 0.1 µM, 1 µM, 2 µM and greater than 100 µM.
For `CN(C)CCCc1ccc(-c2nn(-c3cccc(CN4CCN(C)CC4)c3)cc2CN(C)C)cc1` [Compound 30, 3-[4-[4-(Dimethylaminomethyl)-1-[3-[(4-methylpiperazin-1-yl)methyl] Phenyl]pyrazol-3-yl]phenyl]-N,N-dimethyl-propan-1-amine], in that order: 2.2 ± 0.3 µM, 3.8 ± 0.1 µM, 1.2 µM, 1.6 µM and greater than 100 µM.
For `CN(C)CCCc1ccc(-c2nn(-c3cccc(CN4CCN(C)CC4)c3)cc2CCCN(C)C)cc1` [Compound 31, 3-[4-[4-[3-(Dimethylamino)propyl]-1-[3-[(4-methylpiperazin-1-yl)methyl] Phenyl]pyrazol-3-yl]phenyl]-N,N-dimethyl-propan-1-amine], in that order: 4 ± 0.6 µM, 5.8 ± 0.6 µM, 1 µM, 1.5 µM and greater than 100 µM.
As to `Cc1cn(-c2cccc(CO)c2)nc1-c1ccc(CN(C)C)cc1` [Compound 48, [3-[3-[4-(Dimethylaminomethyl)phenyl]-4-methyl-pyrazol-1-yl]phenyl] Methanol], the IC50 in the data set with Aβ1–40 peptide secretion and in the data set with Aβ1–42 peptide secretion was greater than 10 µM each time. The same molecule came in with a CC50 at 72 h in the data set “in vitro” of 24 µM.
On to `Cc1cn(-c2cccc(CO)c2)nc1-c1cccc(CN(C)CCCN(C)C)c1` [Compound 58, [3-[3-[3-[[3-(Dimethylamino)propyl-methyl-amino]methyl]phenyl]-4-methyl-pyrazol-1-yl]phenyl]methanol], for which the IC50 with Aβ1–40 peptide secretion came out at 3.3 ± 1.3 µM; with Aβ1–42 peptide secretion, 3.5 ± 0.7 µM. Moreover, the values for the EC (20-fold increase) in data set [1] and in data set [2] were greater than 10 µM and 7.9 µM, respectively. Also, the midpoint of cytotoxicity in the data set “in vitro”, the CC50 at 72 h, lay at 20 µM.
For `Cc1cn(-c2cccc(CN(C)C)c2)nc1-c1ccc(CN(C)C)cc1` [Compound 61, {[4-(1-{3-[(Dimethylamino)methyl]phenyl}-4-methyl-1H-pyrazol-3-yl)phenyl]methyl}dimethylamine], in that order: 3.9 ± 0.3 µM, 4.1 ± 2.1 µM, 2.7 µM, 2.7 µM and 27 µM.
Regarding `Cc1cn(-c2cccc(CN3CCN(C)CC3)c2)nc1-c1ccc(CN(C)C)cc1` [Compound 62, Dimethyl({[4-(4-methyl-1-{3-[(4-methylpiperazin-1-yl)methyl]phenyl}-1H-pyrazol-3-yl)phenyl]methyl})amine], the results for the IC50 in the data set on Aβ1–40 peptide secretion and with Aβ1–42 peptide secretion were 2.4 ± 0.2 µM and 3.2 ± 0.8 µM, respectively. Besides, the EC (20-fold increase) in data set [1] amounted to 2 µM; in data set [2], 3.5 µM. For the same molecule, the CC50 at 72 h in “in vitro” amounted to 11 µM.

A word on the IC50: it is the concentration that inhibits the measured activity by half. The CC50 is the concentration at which the toxic effect on the cells reaches its halfway point. High values mean lower toxicity to the cells, low ones greater toxicity to the cells.
